Test results taken from US11530181B2, “IL-6 inhibitors and methods of treatment” (University of Florida Research Foundation, Incorporated, priority 2018, dated 2022).

Key:
[1] = tested on: tert-immortalized human mammaryepithelial cells (HMEC-tert); assay: Cell viability of normal cells HMEC-tert vs SUM159; assay type: cell-based; conditions: 0.25-10 μM, 48 hours
Description: (§1) Cell viability was evaluated by using the MTT assay in triple replicates in one experiment and repeated for three times. Cancer cells were seeded in 96-well plates at a density of 3,000 cells per well. The cells were incubated at 37° C. for a period of 24 hours. Escalating concentrations of IL-6/gp130 inhibitors were added in triplicate to the plates in the presence of 10% FBS. After incubation for 48 or 72 hours, a stock solution of MTT (0.5 mg/ml) was then added to each well containing the treated cells, followed by incubation at 37° C. for 3 h. After removal of medium, the MTT dye was dissolved with spectrophotometric grade DMSO and the absorbance was read at 570 nm. The IC50 value is determined by interpolation based on the absorbance value halfway between positive and negative controls. In the experiment of LLM4 showing higher efficacy in cancer cells with higher levels of IL-6, instead of using medium with 10% FBS, DMEM with 0% FBS was used in order to eliminate the influence of trace amounts of growth factors and cytokines in FBS.
To examine whether the novel compounds show cytotoxicity to normal cells, cell viability was also measured when the normal cell line tert-immortalized human mammaryepithelial cells (HMEC-tert) [Yang H, Pinello C E, Luo J, et al. Small-molecule inhibitors of acetyltransferase p300 identified by high-throughput screening are potent anticancer agents. […]

PE/CA-PJ49 cell line = assay: Inhibitory activity in PTPRD mutant cell line PE/CA-PJ49; assay type: cell-based; conditions: PE/CA-PJ49, 48 h
Description: Human breast cancer cell lines MCF7, MDA-MB-231 and SUM159 were maintained in Dulbecco's modified Eagle medium (DMEM). Human pancreatic cancer cell line BxPC-3 was maintained in RPMI 1640 medium. Human pancreatic cancer cell line Capan-1 was maintained in Iscove's Modified Dulbecco's Medium (IMEM). All media were supplemented with 10% FBS and 1% penicillin/streptomycin, and cells were incubated in a humidified 37° C. incubator with 5% CO2. PE/CA-PJ49 cell line was purchased from external sources and maintained according to manufacturer's protocol.
as §1
Protein tyrosine […] receptor type D (PTPRD) is reported to serve as a tumor suppressor in various human cancers [Peyser et. al, PLoS One (2015) 10(8)]. PTPRD mutation is also known to be associated with increased STAT3 expression [Peyser et. al, PLoS One (2015) 10(8)]. Table 8 captures the inhibitory activities of various compounds in the PTPRD mutant cell line, PE/CA-PJ49.

[2] = tested on: LIF induced STAT3 phosphorylation; assay: Western blot, LIF induced STAT3 phosphorylation in MCF7; assay type: cell-based, human
Description: (§2) Cells were harvested and lysed in cold radioimmunoprecipitation assay (RIPA) lysis buffer containing proteasome inhibitor cocktail and phosphatase inhibitor cocktail. The protein concentrations were determined using the BCA Protein Assay kit. After adding the loading buffer and boiling at 95° C. for 10 minutes, equivalent amounts of proteins were loaded on and separated by SDS-PAGE, and then were transferred to PVDF membranes. Membranes were probed with primary antibodies (1:1000) against phospho-STAT3 (Tyr705), STAT3, phospho-STAT1 (Tyr701), STAT1, phospho-STAT6 (Tyr 641), STAT6, and GAPDH, respectively, and horseradish peroxidase (HRP)-conjugated secondary antibody (1:10000) (Cell Signaling Technology, Beverly, Mass.). Membranes were analyzed using Enhanced Chemiluminescence Plus reagents and either scanned with the Storm Scanner (Amersham Pharmacia Biotech, Inc., Piscataway, N.J.) or imaged with ChemiDoc MP imaging system (Bio-Rad, Hercules, Calif.). […] The cells were harvested after 30 minutes and analyzed by Western blot.
(§3) MCF7 breast cancer cells were seeded in 10 cm plates (1 million cells per plate) and allowed to adhere overnight. […] The cells were harvested after 30 minutes and analyzed by western blotting.

[3] = tested on: INF-γ induced STAT1 phosphorylation; assay: Western blot, INF-γ induced STAT1 phosphorylation in MCF7; assay type: cell-based, human; conditions: MCF7, pre-treatment 2, 3 and 4 hours
Description: as §2, §3

[4] = tested on: OSM induced STAT3 phosphorylation; assay: Western blot, OSM induced STAT3 phosphorylation in MCF7; assay type: cell-based, human
Description: as §2, §3

[5] = tested on: IL-4 induced STAT6 phosphorylation; assay: Western blot, IL-4 induced STAT6 phosphorylation in MCF7; assay type: cell-based, human; conditions: MCF7, pre-treatment 2, 3 and 4 hours
Description: as §2, §3

Row | SMILES | differential cytotoxic effects to HMEC-tert and SUM159 cells [1] | IC50 (PE/CA-PJ49 cell line) [nM] | inhibition of LIF induced STAT3 phosphorylation ([2]; MCF7, 4 μM) | effect on STAT1 phosphorylation [3] | inhibition of OSM induced STAT3 phosphorylation ([4]; MCF7, 4 μM) | effect on STAT6 phosphorylation [5] | LIF induced STAT3 phosphorylation ([2]; MCF7, 15 μM, 2, 3 and 4 hours) | effect on INF-γ induced STAT1 phosphorylation ([3]; 15 μM) | OSM induced STAT3 phosphorylation ([4]; MCF7, 15 μM, 2, 3 and 4 hours) | effect on IL-4 induced STAT6 phosphorylation ([5]; 15 μM)
1 | O=C(Nc1cccc(OCCN2CCCCC2)c1)Nc1cccc(-c2ccn[nH]2)c1 [LLM414, 1-(3-(1H-pyrazol-5-yl)phenyl)-3-(3-(2-(piperidin-1-yl)ethoxy)phenyl)urea] | selectively kill cancer cells | 3410 ± 990 |  |  |  |  |  |  |  | 
2 | O=C(Nc1ccccc1-c1ccn[nH]1)c1ccc(OCCN2CCCCC2)cc1 [LLM418, N-(2-(1H-pyrazol-5-yl)phenyl)-4-(2-(piperidin-1-yl)ethoxy)benzamide] | selectively kill cancer cells | 1790 ± 480 | very little inhibitory effect | little effect | very little inhibitory effect | little effect |  |  |  | 
3 | O=C(Nc1cc(F)ccc1-n1cccc1)c1ccc(OCCCN2CCCCC2)cc1 [LLM4, N-(5-fluoro-2-(1H-pyrrol-1-yl)phenyl)-4-(3-(piperidin-1-yl)propoxy)benzamide] |  |  |  |  |  |  | remain intact | no effect | remain intact | no effect
